According to patent US8614214B2, “Pyrazole amide compounds and uses thereof” (Sinochem Corporation, priority 2010, dated 2013):
Where two headings read alike, the source gives them in different places.

Key:
cucumber downy mildew [1] = test: Persistence comparative test against cucumber downy mildew (greenhouse); assay type: in vivo
corn rust = test: Greenhouse pot seedling assay, corn rust; assay type: in vivo; settings: for Control (%): comparative test, Table 20; for control of corn rust: greenhouse
rice blast [2] = assay type: cell-based
cucumber downy mildew [3] = test: Greenhouse pot seedling assay, cucumber downy mildew; assay type: in vivo; settings: for Control (%): comparative test, Table 18; for control of cucumber downy mildew: greenhouse
banana anthracnose = assay type: cell-based
sigatoka = assay type: cell-based
rice blast [4] = assay type: in vivo
cucumber downy mildew [5] = test: Field trial against cucumber downy mildew; assay type: in vivo; settings: for Control (%) average: average of 3 replicates; for Control (%) I: replicate I; for Control (%) II: replicate II; for Control (%) III: replicate III
Method: The trial was carried out in a greenhouse in July 2011 in […] district, Shanxi Province. Before the treatment, the cucumber plants were at the beginning of infection. The trial method was based on the National Standard of the People's Republic of China-“Pesticide-Guidelines for The Field Efficacy Trials”. […] The Area of plot was 15 m^2, random arrangement and 3 times replication. The volume was about 600 L/hm^2, and water was as the control. Efficacy calculation method is as follows: [formula] [formula]

wheat powdery mildew = test: Greenhouse pot seedling assay, wheat powdery mildew; assay type: in vivo; settings: 400 ppm
mango anthracnose = assay type: cell-based
rice sheath blight = assay type: cell-based
[6] = tested on: corn southern leaf blight; assay type: cell-based

Structure (SMILES): CNC(=O)c1ccccc1NC(=O)COc1ccc(CNC(=O)c2c(Cl)c(C)nn2C)cc1 [Compound 15]
- Control (%) (cucumber downy mildew [1]; 25 ppm, inoculation 3 days after treatment): 52%
- Control (%) (cucumber downy mildew [1]; 25 ppm, inoculation 7 days after treatment): 44%
- Control (%) (cucumber downy mildew [1]; 50 ppm, inoculation 3 days after treatment): 74%
- Control (%) (cucumber downy mildew [1]; 50 ppm, inoculation 7 days after treatment): 62%
- Control (%) (cucumber downy mildew [1]; 100 ppm, inoculation 3 days after treatment): 96%
- Control (%) (cucumber downy mildew [1]; 100 ppm, inoculation 7 days after treatment): 70%
- Control (%) (cucumber downy mildew [1]; 200 ppm, inoculation 3 days after treatment): 100%
- Control (%) (cucumber downy mildew [1]; 200 ppm, inoculation 7 days after treatment): 74%
- Control (%) (cucumber downy mildew [1]; 400 ppm, inoculation 3 days after treatment): 100%
- Control (%) (cucumber downy mildew [1]; 400 ppm, inoculation 7 days after treatment): 81%
- Control (%) (corn rust; 3.13 ppm): 20%
- Control (%) (corn rust; 6.25 ppm): 60%
- Control (%) (corn rust; 12.5 ppm): 80%
- Control (%) (corn rust; 25 ppm): 95%
- control of corn rust (corn rust; 25 ppm): 100%
- Control (%) (corn rust; 50 ppm): 100%
- Control (%) (corn rust; 100 ppm): 100%
- Biological activity in greenhouse, corn rust (corn rust; 400 ppm, Table 21): 100
- control of corn rust (corn rust; 400 ppm): 100%
- inhibition ratio on spore germination of rice blast (rice blast [2]; 0.3 ppm): 100%
- inhibition ratio on spore germination of rice blast (rice blast [2]; 25 ppm): 100%
- Control (%) (cucumber downy mildew [3]; 6.25 ppm): 44%
- Control (%) (cucumber downy mildew [3]; 12.5 ppm): 66%
- Control (%) (cucumber downy mildew [3]; 25 ppm): 88%
- control of cucumber downy mildew (cucumber downy mildew [3]; 25 ppm): 100%
- Control (%) (cucumber downy mildew [3]; 50 ppm): 96%
- control of cucumber downy mildew (cucumber downy mildew [3]; 50 ppm): 100%
- Control (%) (cucumber downy mildew [3]; 100 ppm): 100%
- Biological activity in greenhouse, cucumber downy mildew (cucumber downy mildew [3]; 400 ppm, Table 21): 100
- control of cucumber downy mildew (cucumber downy mildew [3]; 400 ppm): 100%
- EC50 against banana anthracnose (banana anthracnose): 2.867 ppm
- EC50 against sigatoka (sigatoka): 2.389 ppm
- Control (%) I (rice blast [4]; 400 ppm): 69%
- Control (%) II (rice blast [4]; 400 ppm): 71%
- Control (%) III (rice blast [4]; 400 ppm): 67%
- Control (%) average (rice blast [4]; 400 ppm): 69%
- Control (%) I (rice blast [4]; 600 ppm): 77%
- Control (%) II (rice blast [4]; 600 ppm): 81%
- Control (%) III (rice blast [4]; 600 ppm): 77%
- Control (%) average (rice blast [4]; 600 ppm): 78%
- Control (%) I (rice blast [4]; 800 ppm): 84%
- Control (%) II (rice blast [4]; 800 ppm): 89%
- Control (%) III (rice blast [4]; 800 ppm): 88%
- Control (%) average (rice blast [4]; 800 ppm): 87%
- Control (%) average (cucumber downy mildew [5]; 100 ppm): 52%
- Control (%) I (cucumber downy mildew [5]; 100 ppm): 33%
- Control (%) II (cucumber downy mildew [5]; 100 ppm): 53%
- Control (%) III (cucumber downy mildew [5]; 100 ppm): 69%
- Control (%) average (cucumber downy mildew [5]; 200 ppm): 66%
- Control (%) I (cucumber downy mildew [5]; 200 ppm): 60%
- Control (%) II (cucumber downy mildew [5]; 200 ppm): 65%
- Control (%) III (cucumber downy mildew [5]; 200 ppm): 72%
- Control (%) average (cucumber downy mildew [5]; 400 ppm): 82%
- Control (%) I (cucumber downy mildew [5]; 400 ppm): 80%
- Control (%) II (cucumber downy mildew [5]; 400 ppm): 81%
- Control (%) III (cucumber downy mildew [5]; 400 ppm): 86%
- Biological activity in greenhouse, wheat powdery mildew (wheat powdery mildew; Table 21): 100
- control of wheat powdery mildew (wheat powdery mildew; greenhouse): 100%
- EC50 against mango anthracnose (mango anthracnose): 1.518 ppm
- EC50 against rice sheath blight (rice sheath blight): 0.799 ppm
- EC50 against corn southern leaf blight [6]: 0.035 ppm
